According to patent publication US10377694B2, “Bi-aromatic propynyl compounds, pharmaceutical and cosmetic compositions containing them and uses thereof” (GALDERMA RESEARCH & DEVELOPMENT, priority 2016, dated 2019):
pKd: −log10 of the molar value.

Columns and labels:
Assay in all cases: Transactivation test (apparent Kd by Schild regression versus reference antagonist), luciferase reporter in HeLa cells
Assay type in all cases: cell-based
[1] = molecular target: T1, RAR gamma (Homo sapiens, UniProt P13631); settings: HeLa stable transfectants ERE-βGlob-Luc-SV-Neo and RAR gamma ER-DBD-puro, 18 hours incubation, read-out: RAR gamma Kdapp
T1 sequence (P13631 185-454 limits assumed): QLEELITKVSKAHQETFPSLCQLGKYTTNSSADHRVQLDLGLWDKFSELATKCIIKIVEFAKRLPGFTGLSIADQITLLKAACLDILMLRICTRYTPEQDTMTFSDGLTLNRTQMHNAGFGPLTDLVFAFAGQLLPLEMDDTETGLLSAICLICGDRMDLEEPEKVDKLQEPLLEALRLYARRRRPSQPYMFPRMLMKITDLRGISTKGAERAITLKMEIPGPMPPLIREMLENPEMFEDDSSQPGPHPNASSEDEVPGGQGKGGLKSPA
Description: (§1) Activation of receptors by an agonist (activator) in HeLa cells leads to the expression of a reporter gene, luciferase, which generates light in the presence of a substrate. Therefore the activation of receptors can be measured by quantifying the luminescence produced after incubation of the cells in the presence of a reference antagonist. The activator products displace the antagonist from its site, thus permitting the receptor to be activated. The activity is measured by quantifying the increase in light produced. This measurement determines the activating activity of the useful compound in the invention.
(§2) In this study, a constant is determined that represents the affinity of the molecule for the receptor. This value can fluctuate according to the basal activity and expression of the receptor; it is designated apparent Kd (KdApp).
(§3) To determine this constant, cross curves are created of the product to be tested (4′-(3-hydroxy-propyl)-3′-(5,5,8,8-tetramethyl-5,6,7,8-tetrahydro-naphthalen-2-yl)-biphenyl-4-carboxylic acid and 4′-(2,3-dihydroxy-propyl)-3′-(5,5,8,8-tetramethyl-5,6,7,8-tetrahydro-naphtalen-2-yl)-biphenyl-4-carboxylic) acid versus a reference antagonist also called reference ligand, 4-(5,5-dimethyl-8-p-tolyl-5,6-dihydro-naphthalen-2-ylethynyl)-benzoic acid. The product to be tested is used at 10 concentrations and the reference antagonist at 7 concentrations. In each well (of a 96-well plate), the cells are in contact with one concentration of the product to be tested and one concentration of the reference antagonist.
(§4) Full agonist controls, also called 100% controls, (4-[2-(5,5,8,8 tetramethyl-5,6,7,8 tetrahydronaphthalene-2-yl)propenyl]-benzoic acid) and inverse agonist controls, also called 0% controls, (4-{(E)-3-[4-(4-tert-butyl-phenyl)-5,5,8,8-tetramethyl-5,6,7,8-tetrahydro-naphthalen-2-yl]-3-oxo-propenyl}-benzoic acid) are also measured.
(§5) These cross curves allow determining the AC50 (concentration at which 50% activation of the receptor is observed) of the reference ligand at different concentrations of the product to be tested. These AC50s are used to calculate the Schild regression by plotting a line conforming to the Schild equation (“Quantitation in receptor pharmacology” Terry P. Kenakin, Receptors and Channels, 2001, 7, 371-385).
(§6) In the case of an agonist, the AC50 is calculated by plotting the curve of the product at the concentration of the reference ligand giving 80% activation. The percentage of activation that corresponds to the maximum level of activity obtained is also measured.
(§7) The HeLa cell lines used are stable transfectants containing the plasmids ERE-βGlob-Luc-SV-Neo (reporter gene) and RAR (α, β, γ) ER-DBD-puro. These cells are inoculated onto 96-well plates in an amount of 10,000 cells per well in 100 μl DMEM medium with no phenol red and supplemented with 10% delipidated fetal bovine serum. The plates are then incubated at 37° C., 7% CO2 for 4 hours.
(§8) The different dilutions of the product to be tested, the reference ligand (4-(5,5-dimethyl-8-p-tolyl-5,6-dihydro-naphthalen-2-ylethynyl)-benzoic acid), the 100% control (100 nM 4-[2-(5,5,8,8 tetramethyl-5,6,7,8 tetrahydronaphthalene-2-yl)propenyl]-benzoic acid) and the 0% control (500 nM 4-{(E)-3-[4-(4-tert-butyl-phenyl)-5,5,8,8-tetramethyl-5,6,7,8-tetrahydro-naphthalen-2-yl]-3-oxo-propenyl}-benzoic acid) are added in an amount of 5 μl per well. The plates are then incubated 18 hours at 37° C., 7% CO2.
(§9) The culture medium is removed by turning over and 100 μl of a 1:1 PBS (phosphate buffer solution)/luciferin mixture is added to each well. After 5 minutes, the plates are read by the luminescence reader.

[2] = molecular target: T2, RAR beta (Homo sapiens, UniProt P10826); settings: HeLa stable transfectants ERE-βGlob-Luc-SV-Neo and RAR beta ER-DBD-puro, 18 hours incubation, read-out: RAR beta Kdapp
T2 sequence (P10826 183-417 limits assumed): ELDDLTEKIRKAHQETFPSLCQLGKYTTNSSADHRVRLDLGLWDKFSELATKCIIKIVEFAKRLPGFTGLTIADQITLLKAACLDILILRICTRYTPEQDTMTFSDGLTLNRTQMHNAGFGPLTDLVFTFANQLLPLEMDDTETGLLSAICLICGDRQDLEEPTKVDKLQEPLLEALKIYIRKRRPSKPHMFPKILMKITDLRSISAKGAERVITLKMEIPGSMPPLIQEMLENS
Description: as §1, §2, §3, §4, §5, §6, §7, §8, §9

[3] = molecular target: T3, RAR alpha (Homo sapiens, UniProt P10276); settings: HeLa stable transfectants ERE-βGlob-Luc-SV-Neo and RAR alpha ER-DBD-puro, 18 hours incubation, read-out: RAR alpha Kdapp
T3 sequence (P10276 183-417 limits assumed): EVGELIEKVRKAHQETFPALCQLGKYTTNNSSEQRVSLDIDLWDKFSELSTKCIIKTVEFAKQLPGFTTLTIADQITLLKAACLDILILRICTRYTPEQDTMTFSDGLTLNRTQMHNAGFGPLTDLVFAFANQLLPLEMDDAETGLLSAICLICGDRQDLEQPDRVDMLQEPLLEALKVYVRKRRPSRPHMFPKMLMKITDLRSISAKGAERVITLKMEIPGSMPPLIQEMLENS
Description: as §1, §2, §3, §4, §5, §6, §7, §8, §9

SMILES | pKd [1] | pKd [2] | pKd [3]
CC1(C)CCC(C)(C)c2c(OCC3CC3)cc(C#Cc3ccc(C(=O)O)cn3)cc21 [Compound 2] | 8.40 | 8.70 | 7.52
CC1(C)CCC(C)(C)c2c(O)cc(C#Cc3ccc(C(=O)O)c(O)c3)cc21 [Compound 1] | 8.40 | 8.40 | 6.92
